Measurements taken from PMC12247020, “A Cyclized Helix‐Loop‐Helix Peptide as a Molecular Scaffold for Cell‐Membrane Permeable Inhibitors for the Interaction Between Estrogen Receptor α and Coactivator SRC1” (Chembiochem, 2025).
Bridge positions count the residues as written; N and C are the ends. Peptide text beside a SMILES is read from it.

How the values were obtained:
[1] = test system: MCF‐7 breast cancer cells; assay: WST‐1 cell viability assay, 17β‐estradiol‐dependent proliferation; format: cell-based; details: WST‐1 assay, 3.125 to 25 μM peptide, 10 nM 17β‐estradiol, 72 h
Protocol: Next, we examined the inhibitory activities of the peptides for the 17β‐estradiol‐dependent proliferation of MCF‐7 breast cancer cells using the WST‐1 assay (Figure 2D). The MCF‐7 cells were incubated with the serially diluted peptides cHLH‐ERα or YT1‐RS in the presence of 10 nM 17β‐estradiol.
For cell viability assay,^[ [35] ^] ER‐positive MCF‐7 cancer cells were grown in the recommended media Dulbecco's modified Eagle medium (DMEM) supplemented with 10% heat‐inactivated fetal bovine serum and with 1% penicillin–streptomycin (Gibco) in a humidified environment with 5% CO2. These cells were incubated in 96‐well plates (Corning) at 5,000 cells/well and cultured for 24 h. The cells were treated with 10 nM 17β‐estradiol for 1 h, then a various concentrations of peptides were added. After culturing the cells for 72 h, the proliferation f cells was measured by using WST‐1 reagent (Roche) according to the standard protocols. The absorbance was measured by using a microplate reader (Model 680, Bio‐Rad). Reliability of the cell viability assay was confirmed by using Tamoxifen (nacalai tesque) as a control.

[2] = test system: human ERα and the transcriptional coactivator SRC1; assay: Yeast reporter assay (lacZ, β‐galactosidase) for ERα–SRC1 antagonism; format: cell-based; details: 100 μM peptide, 17β‐estradiol (10 and 100 nM), 18 h, 30 °C
Text: The expression plasmids for human ERα and the transcriptional coactivator SRC1 were transformed, along with the lacZ reporter plasmid carrying the estrogen response element (RE).^[ [13] ^] The production of ERα and SRC1 was regulated by the galactose‐inducible GAL1‐10 promoter. In response to 17β‐estradiol, ERα, and SRC1 formed a complex on the RE, inducing the ligand‐dependent expression of β‐galactosidase (Figure S8, Supporting Information). The genes encoding the major cell wall mannoproteins Cwp1p and Cwp2p were deleted,^[ [30] ^] probably allowing the cHLH peptides to access the cell membrane by passing through the less dense cell wall of the yeast strain.^[ [32] ^] The effect of the cHLH peptide on the ERα–SRC1 interaction was examined in the presence of 17β‐estradiol (10 and 100 nM).
As previously reported,^[ [30] ^] the yeast strain ERα cwp1Δcwp2Δ was cultured on agar plates with synthetic dextrose (glucose) complete (SDC) dropout medium lacking tryptophan, leucine, and uracil (SDC‐Trp, Leu, Ura; 2% glucose, 2% agar) for single colony isolation. […] Absorbance at wavelengths of 405 and 595 nm was measured using Model 680 Microplate Reader (BioRad Lab., Inc.) to estimate the β‐galactosidase activity as the amount of o‐nitrophenol (ONP) produced and yeast cell density, respectively. The relative β‐galactosidase activity in each well was calculated as A405/A595. […]

[3] = biological target: T1, interaction between ERα/LBD and FL‐SRC1Box2 (Homo sapiens, UniProt P03372); assay: FP competition: inhibition of the ERα/LBD–FL‐SRC1Box2 interaction; format: binding; details: ERα/LBD 20 μM, four parameter logistic equation (Fig S5C)
T1 construct: Recombinant ERα/LBD (ERα^302–552) was prepared as previously reported; made in house; host or cells: Escherichia coli BL21-CodonPlus-RP (ERα LBD); the probe is a synthetic peptide
T1 sequence (P03372 302-552): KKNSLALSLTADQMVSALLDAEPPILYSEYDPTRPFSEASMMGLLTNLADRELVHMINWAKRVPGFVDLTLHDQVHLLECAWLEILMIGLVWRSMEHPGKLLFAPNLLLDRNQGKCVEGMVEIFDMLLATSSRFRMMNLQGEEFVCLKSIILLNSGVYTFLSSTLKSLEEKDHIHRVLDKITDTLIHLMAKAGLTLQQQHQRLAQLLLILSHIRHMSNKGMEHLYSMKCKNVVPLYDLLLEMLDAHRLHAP
Protocol: The binding activity of cHLH‐ERα was examined by fluorescence polarization (FP) analysis.^[ [26], [29] ^] The cHLH peptides were labeled with tetramethylrhodamine (TMR) to provide the fluorescent cHLH peptide TMR‐cHLH‐ERα, and fluorescent TMR‐YT1‐RS as a negative control (Figure 1, Figure S2, Supporting Information).
4. Fluorescence Polarization
The binding activity of the ERα-LBD was examined with 20 nM FL-SRC1Box2 (CH3CO- […]
C(FL)[…]-NH2; FL: Fluorescein) with 10 µM 17β-estradiol in 20 mM
Tris-HCl (pH 8.0), 25 mM NaCl, 10%(v/v) Glycerol, 1 mM TCEP as described. The concentration of FL-SRC1Box2 labeled with Fluorescein and TMR-cHLH-ERα and YT1-RS were determined from the absorption of Fluorescein or Tetramethylrhodamine. The respective peptide was incubated with ERα-LBD for 30 min in 20 mM Tris-HCl (pH 8.0), 25 mM NaCl with 1 mM 17β-estradiol, and the mixture was transferred into a 384-well microtiter well (Non-binding, Black, greiner bio -one) and the fluorescence polarization was measured on a spectrofluorometer (SpectraMax iD5, Molecular Devices) at 20 °C. The KD values were analyzed via a quadratic binding equation (Fig S5A, S5B) with the data fit to calculate by using KaleidaGraph 4.0 as described elsewhere. The IC50 value was estimated as 7.1 µM derived from four parameter logistic equation (Fig. S 5C). […]

CC(C)C[C@@H]1NC(=O)[C@H](C)NC(=O)[C@H](C)NC(=O)[C@H](CC(C)C)NC(=O)[C@H](CCCCN)NC(=O)CNC(=O)CNC(=O)CNC(=O)CNC(=O)CNC(=O)CNC(=O)CNC(=O)[C@H](CCC(=O)O)NC(=O)[C@H](CC(C)C)NC(=O)[C@H](CCCNC(=N)N)NC(=O)[C@H](CCCNC(=N)N)NC(=O)[C@H](CC(C)C)NC(=O)[C@H](CCC(=O)O)NC(=O)[C@H](CCCNC(=N)N)NC(=O)[C@H](CCC(=O)O)NC(=O)[C@H](CC(C)C)NC(=O)[C@H](CCCNC(=N)N)NC(=O)[C@H](CCCNC(=N)N)NC(=O)[C@H](CC(C)C)NC(=O)[C@H](CCC(=O)O)NC(=O)[C@H](CCCNC(=N)N)NC(=O)[C@H](C)NC(=O)CNC(=O)CSC[C@@H](C(N)=O)NC(=O)[C@H](Cc2ccc(O)cc2)NC(=O)[C@H](C)NC(=O)[C@H](CCCCN)NC(=O)[C@H](CC(C)C)NC(=O)[C@H](CC(C)C)NC(=O)[C@H](CC(C)C)NC(=O)[C@H](CC(C)C)NC(=O)[C@H](CCCCN)NC(=O)[C@H](CC(C)C)NC(=O)[C@H](CCCCN)NC1=O [cHLH‐ERα] ({CH2CO}-GARELRRLERELRRLEGGGGGGGKLAALKLKLLLLKAYC-NH2; thioether N-39)
inhibitory activity for the 17β‐estradiol‐dependent proliferation of MCF‐7 cells [1]: inhibited the proliferation of MCF‐7 cells dose‐dependently | inhibition of transcriptional activity (β‐galactosidase) in yeast reporter assay [2]: significantly inhibited transcriptional activity | IC50 [3]: 7.1 µM
